# Measurements as given in US10441568B2, “Nitroxide radicals for the treatment of diseases of the respiratory tract” (priority 2015, dated 2019).
# Experiments:
# [1] = system: ovalbumin-induced asthma model; assay: Lung histopathology, H&E pathology scoring, OVA asthma model; assay type: in vivo, mice; conditions: FIG. 9
# Procedure: Following aspiration of BAL as described hereinabove, a thoracotomy was performed, and the right main bronchus was tied. The left lung was fixed by means of intrabronchial infusion with 1 ml of 4% formaldehyde, and then immersed in fixative (10% (v/v) neutral buffered formalin) for 24 hours at 4° C. Transverse sections of the left lung were embedded in paraffin, and […] sections were stained with hematoxylin and eosin (H&E) by Hadassah Hospital Pathology Service (Jerusalem, Israel). In addition, periodic acid-Schiff (PAS) staining was performed on lung tissue, and the degree of mucin production was measured from PAS staining.
# In order to evaluate the effect of 3-CP on lung pathology, animals in an ovalbumin-induced asthma model were treated with 3-CP, and killed by abdominal aortic transaction and exsanguination, according to procedures described hereinabove. Lung tissue was examined by hematoxylin and eosin (H&E) staining, the degree of mucin production was determined from periodic-acid-Schiff (PAS) staining.
# [2] = system: ovalbumin-induced murine model of asthma; assay: Lung resistance / airway hyper-responsiveness to methacholine in OVA asthma model; assay type: in vivo, BALB/c mice
# Procedure: (§1) All experimental procedures were carried out in accordance with the NIH Guidelines for the Care and Use of Laboratory Animals. Specific pathogen-free (SPF) male BALB/c mice (6-7 weeks of age, 18-22 grams), routinely screened serologically for relevant respiratory pathogens, were maintained in an animal housing facility for 1 week before use and given access to food and water ad libitum. Animals were randomly assigned to the indicated experimental groups, and sensitized with two intraperitoneal (IP) injections (20 μg ovalbumin (OVA) emulsified in 2 mg aluminum hydroxide (an adjuvant) in 200 μl phosphate buffer saline (PBS), pH 7.4), on days 1 and 10.
# (§2) After another week, the animals were challenged by exposure to ovalbumin (OVA) aerosol (1%, w/v, in PBS) for 30 minutes each day on days 17, 18 and 19, in order to elicit an inflammatory reaction in the lungs characterized by airway hyper-responsiveness (AHR), an influx of inflammatory cells (particularly eosinophils), and increased pulmonary levels of various cytokines and transforming growth factors, protein nitration and lipid peroxidation.
# The features of allergic inflammation typically reached their peak a day or two after the final exposure. Mice were then subjected to one of the following treatments: (i) sham-sensitization plus challenge with PBS; (ii) positive control-sensitization plus challenge with OVA; (iii) sensitization plus challenge with OVA and various indicated treatments (e.g., with nitroxide or dexamethasone), including different modes (oral, IP, intranasal, inhalation), time windows (sensitization stage, challenge stage, both stages and after the last challenge), and doses of nitroxide administration.
# One day after the final challenge, respiratory activity and airway hyper-responsiveness (AHR) of experimental animals were evaluated. Whole body plethysmographs for enhanced pause (Penh) measurements are often used for assessment of AHR. However, critics have questioned the validity of Penh measurements, which supposedly measure airway obstruction of live non-sedated mice, stating that it is likely to measure the distress of the animal rather than actual obstruction. […] In brief, mice were sedated with an intraperitoneal (IP) injection of xylazine hydrochloride and anaesthetized with IP injection of pentobarbital. Subsequently, the animals were tracheostomized using an 18 gauge cannula, ventilated with a FlexiVent™ apparatus (SCIREQ), and muscle paralysis was induced with pancuronium bromide. The mice were ventilated in a quasi-sinusoidal fashion with the following settings: a tidal volume of 10 ml/kg, maximum inflation pressure of […] (30 cm H2O), a positive end expiratory pressure (PEEP) of 3 millibar and a frequency of 150 per minute. Following an equilibration period of 3 minutes of tidal ventilation, two lung inflations to a transrespiratory pressure of 2.5 millibar were performed and baseline measurements were taken. Airway hyper-responsiveness (AHR) was determined by aerosolizing increasing concentrations of methacholine. After baseline determination of airway resistance, mice were challenged with 0 to 64 mg/mL methacholine nebulized directly into the ventilatory circuit using an AeroNeb™ Lab nebulizer system (SCIREQ). Two models of respiratory mechanics were used to assess lung resistance: a linear 1st-order single compartment model and a constant-phase model. All data points were collected with FlexiVent™ software (SCIREQ). […]
# [3] = system: IL-13; assay: IL-13 level in OVA asthma model; assay type: in vivo, BALB/c mice; conditions: for IL-13 level: lung tissue (table title)
# Procedure: as §1, §2
# (§3) Bronchoalveolar lavage (BAL) fluid (also referred to herein as “BALf”) and bronchial submucosal inflammation are characteristic features of asthma. Mice were euthanized with an overdose of 50 mg/kg pentobarbital and ice-cold phosphate buffer saline (PBS) (0.6 ml) was instilled into the lungs. BAL fluid was obtained by three aspirations via tracheal cannulation, centrifuged, and the supernatant collected and stored at −70° C. Cell pellets were re-suspended in PBS and 100 μl aliquots placed onto slides and centrifuged (200 g, 4° C., 10 minutes) in a cytospin machine. Induction of oxidative stress was evaluated using a 2′,7′-dichlorofluorescein fluorescence assay, and total IgE, IgG2a, panel of cytokines, transforming growth factors, collagen, protein nitration and lipid peroxidation were measured using commercial kits according to the manufacturer's recommendations. A Sircol™ collagen assay kit was obtained from Biocolor Life Sciences Assays, a protein nitration assay kit was obtained from Abcam, and other assay kits were obtained from PeproTech Asia.
# (§4) The efficacy of oral administration of 3-CP (1 weight percent in chow) during the sensitization period and/or challenge period was then compared to IP injection (˜300 mg/kg, 0.5 hour before the OVA challenge) or intranasal instillation (˜150 mg/kg, 0.5 hour before the OVA and 6 hours later) of 3-CP, as well as to dexamethasone treatment (1 mg/kg, 3 daily IP injections, 0.5 hour prior to the challenge with OVA aerosol).
# (§5) In order to assess the effect of 3-CP on inflammatory signaling pathways, […] to procedures described hereinabove, upon oral, intranasal or IP administration of 3-CP.
# [4] = system: IFN-γ; assay: IFN-γ level in OVA asthma model; assay type: in vivo, BALB/c mice; conditions: for IFN-γ level: lung tissue (table title)
# Procedure: as §1, §2, §3, §4, §5
# [5] = oral, 1 weight percent in chow, FIG. 3
# [6] = OVA IP-C: 3-CP intraperitoneal during challenge
# [7] = OVA oral-C: 3-CP oral during challenge
# [8] = OVA oral-S&C: 3-CP oral during sensitization and challenge
# [9] = OVA oral-S: 3-CP oral during sensitization
# [10] = oral administration vs IP injection
smiles,measurement,setting,value
"CC1(C)CC(C(N)=O)C(C)(C)N1[O] (stereo not shown) [3-CP, 3-Carbamoyl-2,2,5,5-tetramethyl-pyrrolidin-1-oxyl]","effect on degree of lung pathology, H & E pathology scoring",[1]; 3-CP via all tested modes of delivery,reduced the degree of lung pathology
same,"H & E lung pathology, 3-CP compared with dexamethasone",[1],more effective in this respect than treatment with dexamethasone
same,"lung resistance, oral 3-CP in both periods compared with other regimens","[2]; oral 1 weight percent in chow during sensitization and challenge periods, FIG. 6","more effective than IP injection or intranasal instillation of 3-CP, oral administration of 3-CP during the sensitization period or challenge period alone, or treatment with dexamethasone"
same,effect on methacholine-induced increase in lung resistance,[2]; [5],suppressed methacholine-induced increase in lung resistance
same,"lung resistance suppression, 3-CP compared with TPL",[2]; [5],considerably more effective than TPL
same,"reducing IL-13 level, oral 3-CP compared with intranasal 3-CP and IP dexamethasone",[3]; FIG. 7D and Table 1,more effective than intranasal instillation of 3-CP and IP injection of dexamethasone
same,IL-13 level,[3]; OVA IN-C: 3-CP intranasal during challenge,1.99 ng/mg
same,IL-13 level,[3]; [6],1.38 ng/mg
same,IL-13 level,[3]; [7],2.01 ng/mg
same,IL-13 level,[3]; [8],1.67 ng/mg
same,IL-13 level,[3]; [9],2.20 ng/mg
same,effect on OVA-induced increase in the level of IL-13,"[3]; lung tissue, FIG. 7D and Table 1",inhibited
same,"modulating IL-13 level, oral compared with IP 3-CP",[3]; [10],consistently more effective than IP injection of 3-CP
same,IFN-γ level,[4]; [6],5.17 ± 0.19 ng/mg
same,IFN-γ level,[4]; [7],5.32 ± 0.38 ng/mg
same,IFN-γ level,[4]; [8],5.60 ± 0.22 ng/mg
same,IFN-γ level,[4]; [9],3.78 ± 0.27 ng/mg
same,effect on OVA-induced decrease in the level of INF-γ,"[4]; lung tissue, FIG. 7C and Table 1",inhibited
same,"modulating IFN-γ level, oral compared with IP 3-CP",[4]; [10],consistently more effective than IP injection of 3-CP
